Measured values: PMC6149898, “GPCR Modulation of Thieno[2,3-b]pyridine Anti-Proliferative Agents” (Molecules : A Journal of Synthetic Chemistry and Natural …, 2017)

How the values were obtained:
[1] = biological target: C5AR1 (Homo sapiens, UniProt P21730); assay: gpcrMAX PathHunter beta-arrestin
[2] = tested on: RE:RXF 393; design: method as in earlier work; details: NCI-60 panel; ref [4],[5],[6],[7]; cited from earlier work
[3] = biological target: HTR1F (Homo sapiens, UniProt P30939); assay: gpcrMAX PathHunter beta-arrestin
[4] = biological target: RXFP3 (Homo sapiens, UniProt Q9NSD7); assay: gpcrMAX PathHunter beta-arrestin
[5] = biological target: GHSR (Homo sapiens, UniProt Q92847); assay: gpcrMAX PathHunter beta-arrestin
[6] = tested on: LC:NCI-H460; design: method as in earlier work; details: NCI-60 panel; ref [4],[5],[6],[7]; cited from earlier work
[7] = biological target: GRPR (Homo sapiens, UniProt P30550); assay: gpcrMAX PathHunter beta-arrestin
[8] = tested on: CO:SW-620; design: method as in earlier work; details: NCI-60 panel; ref [4],[5],[6],[7]; cited from earlier work
[9] = biological target: MC5R (Homo sapiens, UniProt P33032); assay: gpcrMAX PathHunter beta-arrestin
[10] = tested on: LC:NCI-H322M; design: method as in earlier work; details: NCI-60 panel; ref [4],[5],[6],[7]; cited from earlier work
[11] = biological target: CALCRL-RAMP2 (Homo sapiens, UniProt O60895+Q16602); assay: gpcrMAX PathHunter beta-arrestin
[12] = biological target: AGTRL1 (Homo sapiens, UniProt P35414); assay: gpcrMAX PathHunter beta-arrestin
[13] = biological target: GPR119 (Homo sapiens, UniProt Q8TDV5); assay: gpcrMAX PathHunter beta-arrestin
[14] = biological target: HTR1E (Homo sapiens, UniProt P28566); assay: gpcrMAX PathHunter beta-arrestin
[15] = tested on: PR:PC-3; design: method as in earlier work; details: NCI-60 panel; ref [4],[5],[6],[7]; cited from earlier work
[16] = biological target: SSTR5 (Homo sapiens, UniProt P35346); assay: gpcrMAX PathHunter beta-arrestin
[17] = tested on: RE:A498; design: method as in earlier work; details: NCI-60 panel; ref [4],[5],[6],[7]; cited from earlier work
[18] = biological target: CXCR7 (Homo sapiens, UniProt P25106); assay: gpcrMAX PathHunter beta-arrestin
[19] = biological target: CXCR3 (Homo sapiens, UniProt P49682); assay: gpcrMAX PathHunter beta-arrestin
[20] = biological target: CXCR2 (Homo sapiens, UniProt P25025); assay: gpcrMAX PathHunter beta-arrestin
[21] = biological target: ADRA2A (Homo sapiens, UniProt P08913); assay: gpcrMAX PathHunter beta-arrestin
[22] = tested on: OV:SK-OV-3; design: method as in earlier work; details: NCI-60 panel; ref [4],[5],[6],[7]; cited from earlier work
[23] = tested on: ME:SK-MEL-2; design: method as in earlier work; details: NCI-60 panel; ref [4],[5],[6],[7]; cited from earlier work
[24] = tested on: CO:KM12; design: method as in earlier work; details: NCI-60 panel; ref [4],[5],[6],[7]; cited from earlier work
[25] = tested on: PR:DU-145; design: method as in earlier work; details: NCI-60 panel; ref [4],[5],[6],[7]; cited from earlier work
[26] = biological target: TRHR (Homo sapiens, UniProt P34981); assay: gpcrMAX PathHunter beta-arrestin
[27] = biological target: GLP1R (Homo sapiens, UniProt P43220); assay: gpcrMAX PathHunter beta-arrestin
[28] = biological target: TACR3 (Homo sapiens, UniProt P29371); assay: gpcrMAX PathHunter beta-arrestin
[29] = biological target: SSTR2 (Homo sapiens, UniProt P30874); assay: gpcrMAX PathHunter beta-arrestin
[30] = biological target: CALCR-RAMP3 (Homo sapiens, UniProt O60896+P30988); assay: gpcrMAX PathHunter beta-arrestin
[31] = biological target: MTNR1A (Homo sapiens, UniProt P48039); assay: gpcrMAX PathHunter beta-arrestin
[32] = biological target: CHRM4 (Homo sapiens, UniProt P08173); assay: gpcrMAX PathHunter beta-arrestin
[33] = biological target: CCR1 (Homo sapiens, UniProt P32246); assay: gpcrMAX PathHunter beta-arrestin
[34] = tested on: OV:IGROV1; design: method as in earlier work; details: NCI-60 panel; ref [4],[5],[6],[7]; cited from earlier work
[35] = biological target: HTR2C (Homo sapiens, UniProt P28335); assay: gpcrMAX PathHunter beta-arrestin
[36] = tested on: LE:CCRF-CEM; design: method as in earlier work; details: NCI-60 panel; ref [4],[5],[6],[7]; cited from earlier work
[37] = tested on: CNS:SNB-19; design: method as in earlier work; details: NCI-60 panel; ref [4],[5],[6],[7]; cited from earlier work
[38] = biological target: DRD3 (Homo sapiens, UniProt P35462); assay: gpcrMAX PathHunter beta-arrestin
[39] = biological target: NMU1R (Homo sapiens, UniProt Q9HB89); assay: gpcrMAX PathHunter beta-arrestin
[40] = tested on: CNS:SNB-75; design: method as in earlier work; details: NCI-60 panel; ref [4],[5],[6],[7]; cited from earlier work
[41] = biological target: EDG6 (Homo sapiens, UniProt O95977); assay: gpcrMAX PathHunter beta-arrestin
EDG6, sequence (O95977 whole entry): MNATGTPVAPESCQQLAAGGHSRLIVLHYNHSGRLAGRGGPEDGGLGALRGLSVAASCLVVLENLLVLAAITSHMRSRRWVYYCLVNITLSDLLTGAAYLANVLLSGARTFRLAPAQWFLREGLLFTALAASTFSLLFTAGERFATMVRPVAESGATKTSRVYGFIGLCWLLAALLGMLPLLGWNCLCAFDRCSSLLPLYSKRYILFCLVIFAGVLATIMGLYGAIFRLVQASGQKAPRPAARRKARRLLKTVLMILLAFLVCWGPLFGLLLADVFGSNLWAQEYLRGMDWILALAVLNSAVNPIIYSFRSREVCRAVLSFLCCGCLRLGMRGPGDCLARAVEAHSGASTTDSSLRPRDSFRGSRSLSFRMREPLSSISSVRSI

CXCR3, sequence (P49682 whole entry): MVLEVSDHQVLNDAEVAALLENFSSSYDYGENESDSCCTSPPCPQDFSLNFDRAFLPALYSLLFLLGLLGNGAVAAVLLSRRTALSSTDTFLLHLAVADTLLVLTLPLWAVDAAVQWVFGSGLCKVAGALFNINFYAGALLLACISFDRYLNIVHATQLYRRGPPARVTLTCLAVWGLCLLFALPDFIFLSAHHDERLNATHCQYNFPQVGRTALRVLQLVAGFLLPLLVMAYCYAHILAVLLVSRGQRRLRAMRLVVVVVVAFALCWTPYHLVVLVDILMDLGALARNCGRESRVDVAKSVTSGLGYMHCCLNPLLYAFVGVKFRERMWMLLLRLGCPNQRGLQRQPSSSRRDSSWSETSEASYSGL
ADRA2A, sequence (P08913 whole entry): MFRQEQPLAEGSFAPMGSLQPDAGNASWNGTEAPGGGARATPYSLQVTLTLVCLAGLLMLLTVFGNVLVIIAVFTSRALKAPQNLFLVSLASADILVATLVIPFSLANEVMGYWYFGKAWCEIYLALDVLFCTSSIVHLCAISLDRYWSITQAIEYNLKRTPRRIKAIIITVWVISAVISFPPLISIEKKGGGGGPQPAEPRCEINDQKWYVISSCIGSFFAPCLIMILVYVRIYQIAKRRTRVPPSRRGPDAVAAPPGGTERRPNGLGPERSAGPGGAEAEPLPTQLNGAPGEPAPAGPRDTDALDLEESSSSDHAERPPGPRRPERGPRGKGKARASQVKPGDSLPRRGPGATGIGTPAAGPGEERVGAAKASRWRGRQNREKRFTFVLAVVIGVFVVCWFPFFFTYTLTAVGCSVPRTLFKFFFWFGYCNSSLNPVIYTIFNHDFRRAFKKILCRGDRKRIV
MC5R, sequence (P33032 whole entry): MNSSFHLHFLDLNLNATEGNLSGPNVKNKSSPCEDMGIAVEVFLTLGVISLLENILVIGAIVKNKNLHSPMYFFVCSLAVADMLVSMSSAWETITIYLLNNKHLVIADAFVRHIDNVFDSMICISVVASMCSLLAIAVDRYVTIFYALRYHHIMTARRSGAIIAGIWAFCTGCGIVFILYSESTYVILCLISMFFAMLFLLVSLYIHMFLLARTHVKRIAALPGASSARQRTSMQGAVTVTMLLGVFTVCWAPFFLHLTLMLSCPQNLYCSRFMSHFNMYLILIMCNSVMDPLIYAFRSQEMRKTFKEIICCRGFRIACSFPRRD
GLP1R, sequence (P43220 24-463): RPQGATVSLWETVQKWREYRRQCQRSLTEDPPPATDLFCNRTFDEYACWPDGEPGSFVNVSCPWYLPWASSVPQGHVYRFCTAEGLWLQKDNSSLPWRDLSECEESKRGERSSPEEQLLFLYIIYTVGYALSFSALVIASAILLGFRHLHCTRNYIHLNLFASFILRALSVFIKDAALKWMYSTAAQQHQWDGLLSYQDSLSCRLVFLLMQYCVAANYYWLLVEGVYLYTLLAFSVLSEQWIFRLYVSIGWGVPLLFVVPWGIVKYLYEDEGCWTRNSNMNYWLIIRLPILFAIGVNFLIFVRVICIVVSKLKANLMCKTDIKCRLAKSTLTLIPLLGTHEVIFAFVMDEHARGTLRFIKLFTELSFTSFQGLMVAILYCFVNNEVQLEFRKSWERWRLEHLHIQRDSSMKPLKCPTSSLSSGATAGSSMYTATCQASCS
C5AR1, sequence (P21730 whole entry): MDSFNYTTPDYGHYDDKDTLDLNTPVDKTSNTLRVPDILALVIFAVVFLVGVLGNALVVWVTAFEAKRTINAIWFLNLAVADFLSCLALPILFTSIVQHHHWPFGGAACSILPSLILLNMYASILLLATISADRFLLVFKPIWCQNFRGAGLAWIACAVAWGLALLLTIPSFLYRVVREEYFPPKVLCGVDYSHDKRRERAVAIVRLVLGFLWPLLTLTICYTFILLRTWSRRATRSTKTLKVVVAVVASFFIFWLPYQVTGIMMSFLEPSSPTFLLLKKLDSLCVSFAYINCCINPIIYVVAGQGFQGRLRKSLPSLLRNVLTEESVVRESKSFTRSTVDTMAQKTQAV
MTNR1A, sequence (P48039 whole entry): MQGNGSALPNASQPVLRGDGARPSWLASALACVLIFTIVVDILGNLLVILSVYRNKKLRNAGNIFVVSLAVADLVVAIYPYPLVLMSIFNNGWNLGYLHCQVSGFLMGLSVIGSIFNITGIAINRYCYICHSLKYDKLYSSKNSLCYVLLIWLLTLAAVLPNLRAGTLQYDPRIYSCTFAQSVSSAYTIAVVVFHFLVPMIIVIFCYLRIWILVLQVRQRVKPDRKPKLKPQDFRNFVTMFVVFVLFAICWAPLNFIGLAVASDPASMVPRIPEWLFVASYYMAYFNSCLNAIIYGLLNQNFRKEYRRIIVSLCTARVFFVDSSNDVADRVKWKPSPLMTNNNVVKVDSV
DRD3, sequence (P35462 whole entry): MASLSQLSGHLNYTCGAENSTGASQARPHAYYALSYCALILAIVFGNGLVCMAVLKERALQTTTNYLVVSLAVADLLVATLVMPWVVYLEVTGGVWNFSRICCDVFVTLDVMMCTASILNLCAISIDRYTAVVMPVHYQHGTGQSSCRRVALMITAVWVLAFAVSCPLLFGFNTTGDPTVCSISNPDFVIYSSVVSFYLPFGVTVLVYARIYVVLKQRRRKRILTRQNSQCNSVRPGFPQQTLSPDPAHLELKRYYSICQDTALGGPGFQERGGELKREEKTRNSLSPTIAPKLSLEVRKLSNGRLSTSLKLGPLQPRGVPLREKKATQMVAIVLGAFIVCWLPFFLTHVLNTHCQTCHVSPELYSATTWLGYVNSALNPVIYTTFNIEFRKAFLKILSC
CXCR7, sequence (P25106 whole entry): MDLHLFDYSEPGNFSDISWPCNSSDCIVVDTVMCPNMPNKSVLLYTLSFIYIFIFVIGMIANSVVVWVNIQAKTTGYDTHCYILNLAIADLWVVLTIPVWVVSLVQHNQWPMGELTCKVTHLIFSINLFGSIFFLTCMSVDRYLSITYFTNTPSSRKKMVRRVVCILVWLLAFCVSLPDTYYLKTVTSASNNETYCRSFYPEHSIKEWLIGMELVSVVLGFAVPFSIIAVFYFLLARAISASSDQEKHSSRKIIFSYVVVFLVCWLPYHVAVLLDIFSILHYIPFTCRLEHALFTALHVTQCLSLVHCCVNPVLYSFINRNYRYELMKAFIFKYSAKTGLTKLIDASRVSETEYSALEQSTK
GRPR, sequence (P30550 whole entry): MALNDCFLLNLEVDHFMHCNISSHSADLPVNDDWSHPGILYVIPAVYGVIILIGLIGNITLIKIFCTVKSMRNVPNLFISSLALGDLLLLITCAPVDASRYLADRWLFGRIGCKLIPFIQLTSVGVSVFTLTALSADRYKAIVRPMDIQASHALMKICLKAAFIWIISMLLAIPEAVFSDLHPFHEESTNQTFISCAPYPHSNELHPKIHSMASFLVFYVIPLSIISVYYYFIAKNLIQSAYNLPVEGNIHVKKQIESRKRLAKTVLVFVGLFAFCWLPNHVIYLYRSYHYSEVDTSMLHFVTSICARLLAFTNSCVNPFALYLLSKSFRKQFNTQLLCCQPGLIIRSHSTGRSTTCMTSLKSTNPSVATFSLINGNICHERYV
TACR3, sequence (P29371 whole entry): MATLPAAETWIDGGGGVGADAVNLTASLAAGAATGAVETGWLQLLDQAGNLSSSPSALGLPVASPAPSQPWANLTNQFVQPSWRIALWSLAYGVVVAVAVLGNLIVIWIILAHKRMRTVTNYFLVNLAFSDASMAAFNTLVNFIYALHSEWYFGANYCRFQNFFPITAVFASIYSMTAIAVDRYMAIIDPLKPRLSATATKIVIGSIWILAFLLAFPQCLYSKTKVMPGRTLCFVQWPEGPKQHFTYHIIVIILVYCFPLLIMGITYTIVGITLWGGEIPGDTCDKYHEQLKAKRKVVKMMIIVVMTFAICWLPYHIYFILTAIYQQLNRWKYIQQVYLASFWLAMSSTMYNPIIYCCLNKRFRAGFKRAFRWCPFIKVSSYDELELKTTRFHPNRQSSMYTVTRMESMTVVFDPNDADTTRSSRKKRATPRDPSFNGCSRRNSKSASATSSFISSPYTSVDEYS
HTR1E, sequence (P28566 whole entry): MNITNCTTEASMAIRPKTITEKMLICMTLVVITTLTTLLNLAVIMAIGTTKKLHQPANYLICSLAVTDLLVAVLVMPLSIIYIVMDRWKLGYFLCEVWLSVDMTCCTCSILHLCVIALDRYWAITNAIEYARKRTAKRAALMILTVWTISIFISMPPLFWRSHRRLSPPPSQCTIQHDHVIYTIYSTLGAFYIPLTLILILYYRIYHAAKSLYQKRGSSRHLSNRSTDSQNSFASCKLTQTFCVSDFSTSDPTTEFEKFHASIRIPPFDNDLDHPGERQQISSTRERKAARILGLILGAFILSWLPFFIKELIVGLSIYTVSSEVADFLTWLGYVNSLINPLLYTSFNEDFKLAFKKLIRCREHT

Structure (SMILES): Cc1c(Cl)cccc1NC(=O)c1sc2nc3c(cc2c1N)C(=O)CCC3 [Compound 1]
- inhibition at 10 µM [1]: 2%
- GI50 [2]: 41.8 nM
- inhibition at 10 µM [3]: -21%
- inhibition at 10 µM [4]: -27%
- inhibition at 10 µM [5]: -2%
- GI50 [6]: 40.8 nM
- inhibition at 10 µM [7]: 11%
- GI50 [8]: 48.6 nM
- inhibition at 10 µM [9]: 20%
- GI50 [10]: 306 nM
- inhibition at 10 µM [11]: -23%
- inhibition at 10 µM [12]: 5%
- inhibition at 10 µM [13]: 23%
- inhibition at 10 µM [14]: 19%
- GI50 [15]: 53.5 nM
- inhibition at 10 µM [16]: -3%
- GI50 [17]: 23.2 nM
- inhibition at 10 µM [18]: -15%
- inhibition at 10 µM [19]: -19%
- inhibition at 10 µM [20]: 33%
- inhibition at 10 µM [21]: 8%
- GI50 [22]: 60.6 nM
- GI50 [23]: 47.7 nM
- GI50 [24]: 67.3 nM
- GI50 [25]: 152 nM
- inhibition at 10 µM [26]: 13%
- inhibition at 10 µM [27]: -1%
- inhibition at 10 µM [28]: 5%
- inhibition at 10 µM [29]: 9%
- inhibition at 10 µM [30]: 17%
- inhibition at 10 µM [31]: -15%
- inhibition at 10 µM [32]: -10%
- inhibition at 10 µM [33]: -10%
- GI50 [34]: 196 nM
- inhibition at 10 µM [35]: -4%
- GI50 [36]: 141 nM
- GI50 [37]: 70.1 nM
- inhibition at 10 µM [38]: 20%
- inhibition at 10 µM [39]: 2%
- GI50 [40]: 40.3 nM
- inhibition at 10 µM [41]: -6%
